The results in this text go back to ChEMBL document CHEMBL1132139, “2-Naphthylcarbapenems: broad spectrum antibiotics with enhanced potency against MRSA” (1999).

One assay has as its system Enterobacter. Put plainly: Compound was evaluated for the antibacterial activity against Enterobacter. Format: functional.
For assay [1], the system named is coagulase-negative Staphylococcus. As to the kind of experiment: Compound was evaluated for the anti-MRCNS activity as MIC50.
The next assay deals with Proteus. Put plainly: Compound was evaluated for the antibacterial activity against Proteus. Format: functional, Proteus sp.
The subject of the next assay is Pseudomonas aeruginosa. Put plainly: Compound was evaluated for the antibacterial activity against Pseudomonas aeruginosa. The format is functional.
Assay [2] relates to Staphylococcus aureus. As to the kind of experiment: Compound was evaluated for the antibacterial activity against methicillin-sensitive Staphylococcus aureus (MSSA). Format: functional.
Another assay has as its system Serratia. Put plainly: Compound was evaluated for the antibacterial activity against Serratia. The format is functional.
Assay [3] concerns Staphylococcus aureus. Put plainly: Compound was evaluated for the antibacterial activity against methicillin-resistant coagulase-negative staphylococci (MRCNS). Format: functional.
The test system of the next assay is Escherichia coli. Put plainly: Compound was evaluated for the antibacterial activity against Escherichia coli. Format: functional.
Assay [4] concerns Staphylococcus aureus. As to the kind of experiment: Compound was evaluated for the anti-MRSA activity as MIC50. Format: functional.
The target of assay [5] is T1, Dipeptidase 1 (Sus scrofa) (UniProt P22412).
T1 sequence (whole entry): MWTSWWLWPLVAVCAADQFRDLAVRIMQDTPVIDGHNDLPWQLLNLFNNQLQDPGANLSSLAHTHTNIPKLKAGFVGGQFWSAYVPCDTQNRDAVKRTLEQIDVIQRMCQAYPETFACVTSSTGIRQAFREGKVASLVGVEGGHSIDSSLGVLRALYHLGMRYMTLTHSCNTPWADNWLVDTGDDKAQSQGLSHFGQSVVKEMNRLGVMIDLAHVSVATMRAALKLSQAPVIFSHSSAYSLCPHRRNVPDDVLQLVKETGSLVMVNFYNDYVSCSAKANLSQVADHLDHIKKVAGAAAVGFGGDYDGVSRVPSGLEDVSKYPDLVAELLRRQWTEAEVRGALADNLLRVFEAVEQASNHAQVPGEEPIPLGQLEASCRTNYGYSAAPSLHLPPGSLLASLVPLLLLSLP
Put plainly: Dehydropeptidase-1 susceptibility.

The next assay relates to Klebsiella. Put plainly: Compound was evaluated for the antibacterial activity against Klebsiella.8. The format is functional.
Assay [6] has as its system Staphylococcus aureus. Put plainly: Compound was evaluated for the antibacterial activity against methicillin-resistant Staphylococcus aureus (MRSA). The format is functional.
Assay [7] concerns Staphylococcus aureus. As to the kind of experiment: Compound was evaluated for the anti-MRSA activity as MIC90. The format is functional.
A further assay deals with Enterococcus. Put plainly: Compound was evaluated for the antibacterial activity against Enterococcus. The format is functional.

≈ marks a conversion by molar mass, not a printed value.

What is called MIC is the lowest concentration that inhibits growth of the organism. One may read the MIC50 as the lowest concentration that inhibits either 50% of growth or 50% of the strains tested, depending on the study. High values mean lower susceptibility, low ones higher susceptibility. For orientation: MIC90 means the lowest concentration that inhibits either 90% of growth or 90% of the strains tested, depending on the study. Lower therefore signals higher susceptibility. Turning to `C[C@@H](O)[C@H]1C(=O)N2C(C(=O)O)=C(SCCNC=N)C[C@H]12` [IMIPENEM ANHYDROUS], the MIC in the assay on Enterobacter came to 0.18 µg/mL (≈ 0.601 µM); against Proteus it was 0.69 µg/mL (≈ 2.3 µM); against Pseudomonas aeruginosa, 0.36 µg/mL (≈ 1.2 µM); with Staphylococcus aureus [2], 0.01 µg/mL (≈ 0.0334 µM); against Serratia it was 0.29 µg/mL (≈ 0.969 µM); against Staphylococcus aureus [3], 70 µg/mL (≈ 234 µM). Besides, the MIC was 0.19 µg/mL (≈ 0.635 µM) with Escherichia coli, 0.29 µg/mL (≈ 0.969 µM) against Klebsiella, 33 µg/mL (≈ 110 µM) in the assay with Staphylococcus aureus [6] and 1.8 µg/mL (≈ 6.01 µM) in the assay with Enterococcus. Moreover, the MIC50 in assay [1] amounted to 128 µg/mL (≈ 428 µM); against Staphylococcus aureus [4], 32 µg/mL (≈ 107 µM). Besides, the Activity in assay [5] came to 1. In the assay with Staphylococcus aureus [7], this compound yielded an MIC90 of 64 µg/mL (≈ 214 µM).
